# “And” between values parts separate entries of the source, which are not always exact repeats. Equal values may be shown once.
# Test: Biodistribution of representative compounds ([^18F]Sri-07-56, [^18F]Sri-07-52, [^18F]JHU1221823, [^18F]FAPI-74), tissue % ID/g with carrier or blocker
# Type: in vivo, mouse
# Conditions: 60 min, 20 μCi per mouse
# From the text: Biodistribution of Representative Compounds
smiles,measurement,setting,value
N#CC1CCCN1C(=O)CNC(=O)c1ccnc2ccc(OCCCNC(=O)CCc3cn(CCC(NC(=O)c4ccc([18F])nc4)C(=O)NCCCCC(NC(=O)NC(CC(=O)O)C(=O)O)C(=O)O)nn3)cc12 (stereo not shown) [[18F]Sri-07-52],Bladder % ID/g Mean,,1.75 % ID/g
same,Blood % ID/g Mean,,2.39 % ID/g
same,Brain % ID/g Mean,,0.09 % ID/g
same,Fat % ID/g Mean,,0.41 % ID/g
same,Femur % ID/g Mean,,2.10 % ID/g
same,Heart % ID/g Mean,,1.39 % ID/g
same,Kidney % ID/g Mean,,1.21 % ID/g
same,Large intestine % ID/g Mean,,1.16 % ID/g
same,Liver % ID/g Mean,,1.07 % ID/g
same,Lung % ID/g Mean,,1.46 % ID/g
same,Muscle % ID/g Mean,,1.40 % ID/g
same,Pancreas % ID/g Mean,,3.30 % ID/g
same,Salivary gland % ID/g Mean,,5.13 % ID/g
same,Small intestine % ID/g Mean,,1.57 % ID/g
same,Spleen % ID/g Mean,,0.74 % ID/g
same,Stomach % ID/g Mean,,0.68 % ID/g
same,Tumor % ID/g Mean,,2.27 % ID/g
same,Bladder % ID/g,individual mice,1.90 % ID/g and 1.61 % ID/g
same,Blood % ID/g,individual mice,2.58 % ID/g and 2.21 % ID/g
same,Brain % ID/g,individual mice,0.08 % ID/g and 0.11 % ID/g
same,Fat % ID/g,individual mice,0.53 % ID/g and 0.29 % ID/g
same,Femur % ID/g,individual mice,1.91 % ID/g and 2.29 % ID/g
same,Heart % ID/g,individual mice,1.36 % ID/g and 1.42 % ID/g
same,Kidney % ID/g,individual mice,1.18 % ID/g and 1.23 % ID/g
same,Large intestine % ID/g,individual mice,1.11 % ID/g and 1.21 % ID/g
same,Liver % ID/g,individual mice,1.11 % ID/g and 1.04 % ID/g
same,Lung % ID/g,individual mice,1.60 % ID/g and 1.32 % ID/g
same,Muscle % ID/g,individual mice,1.43 % ID/g and 1.38 % ID/g
same,Pancreas % ID/g,individual mice,3.34 % ID/g and 3.27 % ID/g
same,Salivery gland % ID/g,individual mice,4.35 % ID/g and 5.90 % ID/g
same,Small intestine % ID/g,individual mice,1.56 % ID/g and 1.57 % ID/g
same,Spleen % ID/g,individual mice,0.72 % ID/g and 0.77 % ID/g
same,Stomach % ID/g,individual mice,0.66 % ID/g and 0.69 % ID/g
same,Tumor % ID/g,individual mice,2.44 % ID/g and 2.10 % ID/g

# — patent US20240382629A1, “HETEROBIVALENT AND HOMOBIVALENT AGENTS TARGETING FIBROBLAST ACTIVATION PROTEIN ALPHA AND/OR PROSTATE-SPECIFIC MEMBRANE ANTIGEN” (The Johns Hopkins University, priority 2021, published 2024)
